Literature values as cited in patent US10188676B2, “Anti-inflammatory solution” (Hypo-Stream Limited, priority 2013, dated 2019).

Tested on: alveolar osteitis (AO)
Details: 0.2% solution or gel, surgical site irrigation

In the case of [H]/N=C(\N/C(=N/[H])NCCCCCCNC(=N)NC(=N)Nc1ccc(Cl)cc1)Nc1ccc(Cl)cc1 [chlorhexidine], the “effectiveness against alveolar osteitis” value is given as “Neither report found evidence of effectiveness”.
